Data from patent publication EP4121415B1, “INHIBITORS OF CYTOKININ OXIDASE DERIVED FROM 1-[2-(HYDROXYALKYL)PHENYL]-3-YLUREA, USE THEREOF AND PREPARATIONS CONTAINING THESE DERIVATIVES” (Univerzita Palackého v Olomouci, priority 2020, dated 2021).
Several values for one entry are separate records, joined by “and”; a condition that tells them apart may be missing. Equal entries are not always repeated.

Assays:
[1] = test system: segments of wheat leaves (Triticum aestivum cv. Hereward); assay: wheat leaf senescence assay performed in the dark (chlorophyll retention in detached leaf segments); assay type: in vivo; settings: Triticum aestivum, foliar, 96 h, read-out: (% of chlorophyll above control)
Experimental: Seeds of winter wheat (Triticum aestivum cv. Hereward) was washed under running water for 4 hours and then sown in vermiculite saturated with Knop's nutrient solution. The trays with seeds were placed in an air-conditioned growth chamber with a 16/8 hour light regime (light intensity 50 µmol.m^-2.s^-1) and a temperature of 15 °C. After 7 days, the seedlings had developed the first […] and the second leaf began to grow. Top sections approximately 4 cm long were excised from the first leaves of 4 plants and their combined weight was adjusted to exactly 100 mg. The basal ends of these 4 leaf segments were placed in the wells of microtiter polystyrene plates containing solution (150 µL) of the tested derivative. The plates were placed in a plastic box with filter paper, which was saturated with water (to maintain the maximum humidity). After 96 hours of incubation in the dark at 25 °C, the leaf segments were removed and the chlorophyll was extracted to 5 mL of 80% ethanol by heating the leaf segments in ethanol at 80 °C for 40 min. The sample volume was then adjusted to 5 mL by adding 80% ethanol. The absorbance of the extracts was measured at 665 nm. Chlorophyll extracts from leaf segments incubated in deionized water (so-called yellow control) were also measured as controls. Freshly cut leaves (100 mg) were used as a green control, from which chlorophyll was extracted and measured in the same manner. The calculated values are the average of 5 replicates and the whole experiment was repeated two times. The tested compounds were dissolved in dimethyl sulfoxide (DMSO) to a concentration 10^-2 M. This stock solution was further diluted with water to a concentration of 10 micromolar. At this concentration, the substances were tested.

[2] = molecular target: T1, maize enzyme cytokinin oxidase/dehydrogenase 1 (ZmCKX1) (Zea mays, UniProt Q9T0N8); assay: ZmCKX1 inhibition, PMS/MTT assay; assay type: biochemical
T1 construct: made in house; host or cells: Yarrowia lipolytica
Experimental: The IC50 (concentration of a substance that causes 50% inhibition of the enzyme activity) was measured by PMS/MTT assay [phenazine methosulphate/3-(4,5-dimethylthiazol-2-yl)-2,5-diphenyltetrazolium bromide]. The assay was performed in 96-well microtiter plates. Each well contained a reaction mixture with a final concentration of: 0.1 M KH2PO4, pH 7.4, 1 mM MTT, 0.2 mM PMS, tested substance in a concentration range of 0.1 nM - 1 µM and 10 µM N^6-isopentenyladenine (iP) as a substrate. To this reaction mixture 100 µL of medium containing the active enzyme ZmCKX1 was added. The enzyme was produced by the yeast Yarrowia lipolytica and isolated according to the protocol (Kopečný D. et al., 2005, […] 87:1011-1022). The plates were incubated for 30 min at 37 °C and the enzymatic reaction was stopped by the addition of 25 µL of 35% acetic acid. Then, the absorbance at 578 nm was measured on a spectrophotometer, and the absorbance of the sample without the substrate was substracted as a reference value. The IC50 value was determined from the concentration-dependent curves in GraphPad Prism software. The values shown in Table 1 are the average of at least two measurements each performed in three repetitions. […] This also applies to 3,5-DCl-Ph-U derivatives.

[3] = test system: Arabidopsis thaliana (ecotype Col-0); assay: abiotic stress (saline, osmotic) assay on Arabidopsis seedlings; assay type: in vivo; settings: 10 nM, 6 days of growth after transfer
Experimental: Compound 61 was tested for its ability to alleviate the effects of abiotic stress, represented by application of 100 mM NaCl (saline stress) or 100 mM mannitol (osmotic stress), respectively. The assay was performed as described in (Ugena et al., 2018, Front Plant Sci. 9, 1327. doi: 10.3389/fpls.2018.01327). Arabidopsis thaliana (ecotype Col-0) seeds were germinated on full MS growth medium for three days without presence of any treatment. After that they were transferred to the same medium containing 10 nM concertation of compound 61 in the absence or presence of the abiotic stress factor. Dimethyl sulfoxide (DMSO) was used as a solvent control (mock) in all variants. The dynamics of the shoot biomass formation and the relative growth rate were evaluated by recording the green area twice a day during the 6 days of growth after the seedling transfer. The abiotic stress conditions caused severe penalty in both traits evaluated. The salt and mannitol stress reduced the shoot yield by 63 % and 42 %, respectively, whereas presence of the compound 61 turned back the penalty by almost 20 % (Table 3 and Fig. 1). […] 11 % (Table 3).

[4] = test system: Arabidopsis thaliana; assay: foliar application, lifespan of Arabidopsis under optimal conditions; assay type: in vivo; settings: sprayed with 0.1 µM aqueous solution in phase of 4 true leaves, n = 25, compared to control plants
Experimental: Young Arabidopsis thaliana plants grown in small pots in a soil were sprayed with a 0.1 µM aqueous solution of substance 61 in phase of 4 true leaves (within 14-20 days after sowing).
Treated plants (n = 25) and control plants (n = 25) were further grown under optimal conditions until their natural death as in Example 25. […] The treated plants remained more green for a longer period of time (delayed senescence), which allowed them to accumulate more products of photosynthesis, which in turn may have contributed to a higher yield of these plants.

[5] = test system: Arabidopsis thaliana; assay: foliar application, seed yield in Arabidopsis; assay type: in vivo
Experimental: In our experiment, young Arabidopsis thaliana plants were grown in small pots in soil and they were sprayed with a 0.1 µM compound 61 (aq solution) in phase of 4 true leaves (about 14-20 days after sowing). Treated plants (n = 25) and control plants (n = 25) were further grown under optimal conditions until their natural death. Subsequently, seeds were harvested from all plants and the yield was evaluated. […] This means a 19 % increase in total seed yield.
This means an increase in total seed yield of 23 %.

[6] = test system: winter rapeseed; assay: field trial, foliar application, seed yield of winter rapeseed; assay type: in vivo; settings: 5 µM in 300 L per hectare; for weight of one thousand seeds: control 5.51 g; for seed yield compared to the control (100 %): foliar
Experimental: In 2017, the effect of foliar application of compound 61 (5 µM concentration in a volume of 300 L per hectare) on seed yield of winter rapeseed in field conditions was determined. The field trials were performed according to "good agricultural practice". Substance 61 was applied to plants in two different growth phases - BBCH 30 and BBCH 33-35. […] The weight of one thousand seeds in the treated plants was 5.7 g (BBCH 30) and 5.8 g (BBCH 33-35). This phenomenon contributed to the increase in total seed yield.

[7] = sprayed with 0.1 µM aq solution in phase of 4 true leaves, n = 25, optimal conditions

T1 sequence (Q9T0N8 19-534): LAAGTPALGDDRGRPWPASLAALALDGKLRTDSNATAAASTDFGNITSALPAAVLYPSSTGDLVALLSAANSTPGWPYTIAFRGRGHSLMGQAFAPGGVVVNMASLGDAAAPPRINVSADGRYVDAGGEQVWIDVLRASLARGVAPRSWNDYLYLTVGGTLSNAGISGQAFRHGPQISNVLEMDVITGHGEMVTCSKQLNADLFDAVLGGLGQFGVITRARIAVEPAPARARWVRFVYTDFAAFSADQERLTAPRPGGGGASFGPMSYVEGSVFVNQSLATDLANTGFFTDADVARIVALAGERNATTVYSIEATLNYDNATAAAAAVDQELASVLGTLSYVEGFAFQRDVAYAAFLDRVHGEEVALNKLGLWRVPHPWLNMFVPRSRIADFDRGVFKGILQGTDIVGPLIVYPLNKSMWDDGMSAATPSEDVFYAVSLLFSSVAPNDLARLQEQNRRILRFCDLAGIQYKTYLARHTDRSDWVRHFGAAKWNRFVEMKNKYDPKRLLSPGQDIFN

In the case of O=C(Nc1cccc(OC(F)(F)F)c1)Nc1ccccc1CCO [Compound 61, 1-[2-(2-Hydroxyethyl)phenyl]-3-(3-trifluoromethoxyphenyl)urea], the activation at 10 µM [1] is reported as 24%, the IC50 [2] is reported as 180 nM and the “shoot yield: penalty caused by stress turned back” value ([3]; 100 mM NaCl (saline stress) or 100 mM mannitol (osmotic stress)) is reported as roughly 20%. The “average relative growth rate: effect of the stressors reduced” value ([3]; 100 mM NaCl or 100 mM mannitol) was roughly 11%, the “longer viability (average)” value [4] was 10 days and the “increase in total seed yield” value ([5]; 0.1 µM spray, compared to control plants) was 19% and 23%. For the same molecule, the “seeds per silique (average)” value [5, 7] was 52 (± 4) and 49 (± 6), the “total seed yield per plant” value [5, 7] was 155 (± 19) mg and 138 (± 15) mg and the “weight of one thousand seeds” value ([6]; applied at BBCH 30) was 5.7 g. For the same molecule, the “weight of one thousand seeds” value ([6]; applied at BBCH 33-35) was 5.8 g, the “seed yield compared to the control (100 %)” value ([6]; applied at BBCH 30, 2017) was 105.7% and the “seed yield compared to the control (100 %)” value ([6]; applied at BBCH 33-35, 2017) was 107.5%.
